Measured values: patent US7452997B2 (priority 2004, dated 2008)
Where two headings read alike, the source gives them in different places.

Legend:
human CB1 receptor [1] = biological target: T1, human CB1 receptor (Homo sapiens, UniProt P21554); test: Functional cell-based assay, CB1 receptor mediated change in CRE β-gal expression (agonist / inverse agonist)
T1 construct: expressed in transfected cells; host or cells: SK-N-MC cells, stably transfected with pcDNA3 CB-1 (human); semi-purified membrane pellet
T1 sequence (P21554 whole entry): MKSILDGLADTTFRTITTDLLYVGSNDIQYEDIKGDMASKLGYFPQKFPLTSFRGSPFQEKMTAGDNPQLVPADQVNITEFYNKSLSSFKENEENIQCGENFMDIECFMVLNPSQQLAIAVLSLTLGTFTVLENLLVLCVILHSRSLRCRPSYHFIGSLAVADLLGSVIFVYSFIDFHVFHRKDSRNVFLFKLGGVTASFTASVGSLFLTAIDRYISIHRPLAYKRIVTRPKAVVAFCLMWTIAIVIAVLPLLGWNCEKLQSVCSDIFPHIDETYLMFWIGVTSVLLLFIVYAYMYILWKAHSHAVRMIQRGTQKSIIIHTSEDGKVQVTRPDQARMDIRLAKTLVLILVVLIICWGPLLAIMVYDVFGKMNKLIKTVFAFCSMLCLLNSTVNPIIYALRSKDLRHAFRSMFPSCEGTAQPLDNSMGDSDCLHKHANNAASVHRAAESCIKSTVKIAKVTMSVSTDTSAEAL
Text: (§1) Functional Cell-Based Assay for CB1 or CB2 Agonist and Inverse Agonist Effects on Intra-Cellular Adenylate Cyclase Activity
(§2) The CB1 and CB2 receptors are G-protein coupled receptors (GPCR) which influence cell function via the Gi-protein. These receptors modulate the activity of intracellular adenylate cyclase which in turn produces the intracellular signal messenger cyclic-AMP (cAMP).
(§3) At baseline, or during non-ligand bound conditions, these receptors are constitutively active and tonically suppress adenylate cyclase activity. The binding of an agonists causes further receptor activation and produces additional suppression of adenylate cyclase activity. The binding of an inverse agonist inhibits the constitutive activity of the receptors and results in an increase in adenylate cyclase activity.
(§4) By monitoring intracellular adenylate cyclase activity, the ability of compounds to act as agonists or inverse agonists can be determined.
(§5) Test compounds were evaluated in SK-N-MC cells which, using standard transfection procedures, were stably transfected with human cDNA for pcDNA3-CRE β-gal and pcDNA3 CB1 receptor (human) or pcDNA3 CB2 receptor (human). By expressing CRE β-gal, the cells produced β-galactosidase in response to CRE promoter activation by cAMP. Cells expressing CRE β-gal and either the human CB1 or CB2 receptor will produce less β-galactosidase when treated with a CB1/CB2 agonist and will produce more β-galactosidase when treated with a CB1/CB2 inverse agonist.
(§6) The cells were grown in 96-well plates under standard cell culture conditions at 37° C. in a 5% CO2 atmosphere. After 3 days, the media was removed and a test compound in media (wherein the media was supplemented with 2 mM L-glutamine, […] sodium pyruvate, 0.1% low fatty acid FBS (fetal bovine serum) and antibiotics) was added to the cell. The plates were incubated for 30 minutes at 37° C. and the plate cells were then treated with forskolin over a 4-6 hour period, then washed and lysed. The β-galactosidase activity was quantitated using commercially available kit reagents (Promega Corp. Madison, Wis.) and a VMAX Plate Reader (Molecular Devices, Inc).
(§7) The change in β-galactosidase activity was determined by setting a vehicle treated cell's activity value at 100% and expressing the β-galactosidase activity measured in a corresponding compound treated cell as a percent of the vehicle treated cell activity.
(§8) The EC50 values for compounds tested were calculated by linear regression and were obtained from studies in which varying compound concentrations were used.

human CB1 receptor [2] = biological target: T1, human CB1 receptor; test: biochemical; format: binding
Procedure, shortened: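 Radioligand binding was run at 30° C for 90 minutes, pH 7.5 Tris buffer containing 0.5 mg/mL fatty acid free BSA, on semi-purified membranes of stably transfected SK-N-MC cells. Filter-bound radioactivity was scintillation counted, with IC50 obtained by linear regression across compound concentrations.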

human CB2 receptor [3] = biological target: T2, human CB2 receptor (Homo sapiens, UniProt P34972); test: Binding assay, cannabinoid CB2 receptor ([3H]-CP-55,940 displacement); details: SK-N-MC cell membranes, radioligand CP-55,940 0.2 nM
T2 sequence (P34972 whole entry): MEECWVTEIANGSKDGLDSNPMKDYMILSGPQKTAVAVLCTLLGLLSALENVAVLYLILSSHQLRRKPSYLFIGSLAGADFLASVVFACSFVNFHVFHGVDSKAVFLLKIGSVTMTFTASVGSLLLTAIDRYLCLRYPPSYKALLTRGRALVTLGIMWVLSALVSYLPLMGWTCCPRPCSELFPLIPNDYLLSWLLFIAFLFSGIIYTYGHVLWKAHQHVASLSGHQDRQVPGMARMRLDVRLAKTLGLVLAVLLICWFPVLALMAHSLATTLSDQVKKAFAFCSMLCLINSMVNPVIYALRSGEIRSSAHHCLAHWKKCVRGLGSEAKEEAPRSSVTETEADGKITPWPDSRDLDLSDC
Procedure, shortened: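 Displacement of [3H]-CP-55,940 (0.2 nM) was measured over 90 min at 30 °C (pH 7.5 Tris/MgCl2/EDTA buffer with BSA), using semi-purified membranes of human CB2-transfected SK-N-MC cells. Bound counts collected on GF/C filters, 10 uM WIN 55,212 as nonspecific control; IC50 from varied concentrations.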

human CB2 receptor [4] = biological target: T2, human CB2 receptor; test: Functional cell-based assay, CB2 receptor mediated change in CRE β-gal expression (agonist / inverse agonist); details: SK-N-MC cells, forskolin
Text: as §1, §2, §3, §4, §5, §6
For cells expressing CRE β-gal and the CB2 receptor, CB2 agonists reduced β-galactosidase activity in a dose-dependent manner and CB2 inverse agonists increased β-galactosidase activity in a dose-dependent manner.
as §7, §8

[5] = Cannabinoid CB2 Receptor Binding IC50, human CB2 receptor
[6] = SK-N-MC cells, CRE β-gal, human CB1 receptor, forskolin, inverse agonist, read-out: CB1 Receptor Functional Inverse Agonist EC50
[7] = inverse agonist, read-out: CB2 Receptor Functional Inverse Agonist EC50

| SMILES | EC50 (human CB1 receptor [1]) | IC50 (human CB1 receptor [2]) | IC50 (human CB2 receptor [3]; [5]) | further results |
| --- | --- | --- | --- | --- |
| CCOC(=O)[C@@H]1CCCC[C@@H]1NC(=O)c1nn(Cc2ccccc2)c2c1CCCC2 (relative stereo) [compound 38] | 103 nM | 6 nM | 3.3 nM |  |
| CC(NS(=O)(=O)C=Cc1nn(-c2ccc(F)cc2)c2c1CCCC2CCc1ccccc1)c1ccccc1 (stereo not shown) [Cpd 258, 2-[1-(4-fluoro-phenyl)-7-phenethyl-4,5,6,7-tetrahydro-1H-indazol-3-yl]-ethenesulfonic acid (1-phenyl-ethyl)-amide] | 480 nM |  |  |  |
| CC(NS(=O)(=O)C=Cc1nn(-c2ccc(F)cc2)c2c1CCCC2CCc1ccccc1)C1CCCCC1 (stereo not shown) [Cpd 259, 2-[1-(4-fluoro-phenyl)-7-phenethyl-4,5,6,7-tetrahydro-1H-indazol-3-yl]-ethenesulfonic acid (1-cyclohexyl-ethyl)-amide] |  |  |  | EC50 (human CB1 receptor [1]; [6]): 610 nM |
| O=C(NN1CCCCC1)c1nn(-c2ccc(Cl)cc2Cl)c2c1CCCC2=Cc1ccc(F)cc1 [Cpd 297, 1-(2,4-dichloro-phenyl)-7-(4-fluoro-benzylidene)-4,5,6,7-tetrahydro-1H-indazole-3-carboxylic acid piperidin-1-ylamide] | 5 nM | 13 nM |  |  |
| COc1cccc(C2CCCc3c(C(=O)N[C@H](CCl)c4ccccc4)nn(-c4ccc(Cl)cc4Cl)c32)c1 (stereo partly drawn) [Cpd 316, 1-(2,4-dichloro-phenyl)-7-(3-methoxy-phenyl)-4,5,6,7-tetrahydro-1H-indazole-3-carboxylic acid [(1S)-2-chloro-1-phenyl-ethyl]-amide] | 46 nM |  |  |  |
| COc1ccc(-n2nc(C(=O)NCCc3ccc(N)cc3)c3c2CCCC3)cc1 [compound 7] |  |  |  | EC50 (human CB1 receptor [1]; [6]): 3880 nM; IC50 (human CB1 receptor [2]; human CB1 receptor, SK-N-MC cell membranes, radioligand CP-55,940 0.2 nM, read-out: Cannabinoid CB1 Receptor Binding IC50): 3100 nM; IC50 (human CB2 receptor [3]; human CB2 receptor, read-out: Cannabinoid CB2 Receptor Binding IC50): 3570 nM |
| COc1ccc(-n2nc(C(=O)NC3C4(C)CCC(C4)C3(C)C)c3c2CCCC3)cc1 (stereo not shown) [compound 9] | 2750 nM | 338 nM | 11.9 nM |  |
| CCOC(=O)[C@@H]1CCCC[C@@H]1NC(=O)c1nn(-c2ccc(F)cc2)c2c1CCCC2 [compound 33] | 135 nM | 58 nM | 8 nM |  |
| CCOC(=O)C1C2CCC(C2)C1NC(=O)c1nn(Cc2ccccc2)c2c1CCCC2 (stereo not shown) [compound 43] | 295 nM | 14 nM | 1 nM |  |
| CCOC(=O)C1CCCc2c1c(C(=O)NC1C3(C)CCC(C3)C1(C)C)nn2C1CCCCC1 (stereo not shown) [compound 73] | 1740 nM | 760 nM | 295 nM |  |
| CCOC(=O)C1CCc2nn(-c3ccccc3)c(C(=O)NC34CC5CC(CC(C5)C3)C4)c2C1 (stereo not shown) [compound 91] | 3370 nM |  |  |  |
| CC12CCC(C1)C(C)(C)C2NC(=O)c1nn(-c2ccc(F)cc2)c2c1CCCC2c1ccccc1 (stereo not shown) [compound 144] | 176 nM | 220 nM | 40 nM |  |
| CC(NC(=O)c1nn(-c2ccc(F)cc2)c2c1CCCC2c1ccccc1)C12CC3CC(CC(C3)C1)C2 (stereo not shown) [compound 146] | 1520 nM |  |  |  |
| CCOC(=O)[C@H]1C2CCC(C2)[C@H]1NC(=O)c1nn(-c2ccc(F)cc2)c2c1CCCC2c1ccccc1 (stereo partly shown) [compound 147] | 152 nM | 2080 nM | 1790 nM |  |
| CC12CCC(C1)C(C)(C)C2NC(=O)c1nn(-c2ccc(F)cc2)c2c1CCCC2CCc1ccccc1 (stereo not shown) [compound 151] | 801 nM | 590 nM | 30 nM |  |
| O=C(NC12CC3CC(CC(C3)C1)C2)c1nn(-c2ccc(F)cc2)c2c1CCCC2c1ccccc1 (stereo not shown) [compound 165] | 1030 nM |  | 800 nM |  |
| CCNC(=O)[C@@H]1C2CCC(C2)[C@@H]1NC(=O)c1nn(Cc2ccccc2)c2c1CCCC2 (stereo partly shown) [compound 167] | 3360 nM | 1660 nM | 28 nM |  |

| SMILES | EC50 (human CB1 receptor [1]) | IC50 (human CB1 receptor [2]) | IC50 (human CB2 receptor [3]; [5]) | further results |
| --- | --- | --- | --- | --- |
| COC(=O)[C@H]1CCc2c(c(C(=O)NC3C4CC5CC(C4)CC3C5)nn2C2CCCCC2)C1 (stereo partly shown) [compound 218] |  | 400 nM | 3 nM | EC50 (human CB2 receptor [4]; [7]): 6 nM |
| COC(=O)[C@@H]1CCc2c(c(C(=O)NC3C4CC5CC(C4)CC3C5)nn2C2CCCCC2)C1 (stereo partly shown) [compound 219] |  | 100 nM | 4 nM | EC50 (human CB2 receptor [4]; [7]): 320 nM |
| CC(C)OC(=O)C1CCc2c(c(C(=O)NC3C4CC5CC(C4)CC3C5)nn2C2CCCCC2)C1 (stereo not shown) [compound 232] |  | 2400 nM | 30 nM | EC50 (human CB2 receptor [4]; [7]): 360 nM |
| CC(NC(=O)c1nn(Cc2ccccc2)c2c1CCCC2c1ccccc1)c1ccccc1 (stereo not shown) [compound 253] | 1940 nM | 25 nM | 300 nM |  |
| CCOC(=O)C1CCc2c(c(C(=O)NC(C)c3ccccc3)nn2Cc2ccccc2)C1 (stereo not shown) [compound 256] | 250 nM | 260 nM | 300 nM |  |
| CCOC(=O)[C@@H]1C2CCC(C2)[C@@H]1NC(=O)c1nn(C2CCCCC2)c2c1CCCC2 (stereo partly shown) [compound 278] |  | 403 nM | 37.5 nM | EC50 (human CB2 receptor [4]; agonist, read-out: CB2 Receptor Functional Agonist EC50): 0.78 nM |
| CCOC(=O)C1CCc2c(C(=O)N[C@H](C)C3CCCCC3)nn(C3CCCCC3)c2C1 (stereo partly shown) [compound 284] |  | 350 nM | 45 nM | EC50 (human CB2 receptor [4]; [7]): 360 nM |
| O=C(NN1CCCCC1)c1nn(-c2ccc(Cl)cc2Cl)c2c1CCC/C2=C\c1ccc(Cl)cc1 [compound 290] | 44 nM | 25 nM | 1000 nM |  |
| C[C@@H](NC(=O)c1nn(-c2ccc(Cl)cc2Cl)c2c1CCC/C2=C\c1ccc(F)cc1)C1CCCCC1 [compound 295] | < 30 nM | 3 nM |  |  |
| C[C@@H](NC(=O)c1nn(-c2ccc(Cl)cc2Cl)c2c1CCC/C2=C\c1ccc(F)cc1)c1ccccc1 [compound 296] | 13 nM | 5 nM |  |  |
| O=C(NN1CCOCC1)c1nn(-c2ccc(Cl)cc2Cl)c2c1CCC/C2=C\c1ccc(F)cc1 [compound 298] | 4 nM | 64 nM |  |  |
| C[C@@H](NC(=O)c1nn(-c2ccc(Cl)cc2Cl)c2c1CCC/C2=C\c1ccc(Cl)cc1)c1ccccc1 [compound 307] | 100 nM |  |  |  |
| C[C@H](NC(=O)c1nn(-c2ccc(Cl)cc2Cl)c2c1CCCC2=Cc1ccc(F)cc1)C1CCCCC1 [compound 309] | 81 nM | 47 nM |  |  |
| COc1cccc(C2CCCc3c(C(=O)N[C@H](C)c4ccccc4)nn(-c4ccc(Cl)cc4Cl)c32)c1 (stereo partly shown) [compound 312] | 36 nM |  |  |  |
| O=C(NCc1ccccn1)c1nn(-c2ccc(Cl)cc2Cl)c2c1CCCC2=Cc1ccc(Cl)cc1 [compound 319] | 50 nM |  |  |  |
| CC(NC(=O)c1nn(-c2ccc(Cl)cc2Cl)c2c1CCC/C2=C\c1ccc(Cl)cc1)c1ccccn1 (stereo not shown) [compound 320] | 1 nM | 14 nM |  |  |
